Experimental data taken from the NIST ThermoML archive (doi:10.1021/je050056e).
± gives the expanded uncertainty stated by the source.

Details: Liquid; for mass density: 101.33 kPa

FC1(F)C(F)(F)C(F)(F)C2(F)C(F)(F)C(F)(F)C(F)(F)C(F)(F)C2(F)C1(F)F (centres undefined) [perfluorodecalin]
Details | mass density [kg/m3] | vapor or sublimation pressure [kPa]
288.15 K | 1952.8 ± 1.9 | –
288.25 K | – | 0.57 ± 0.03
293.15 K | 1941.7 ± 1.9 | –
293.25 K | – | 0.73 ± 0.04
298.15 K | 1930.5 ± 1.9 | –
298.21 K | – | 0.91 ± 0.05
303.15 K | 1919.2 ± 1.9 | –
303.29 K | – | 1.25 ± 0.06
308.23 K | – | 1.59 ± 0.06
313.15 K | 1896.6 ± 1.8 | –
313.22 K | – | 2.05 ± 0.07
318.21 K | – | 2.66 ± 0.07
323.18 K | – | 3.45 ± 0.08
328.17 K | – | 4.41 ± 0.09
333.2 K | – | 5.47 ± 0.1

FC(F)C(F)(F)C(F)(F)C(F)(F)C(F)(F)C(F)(F)C(F)(F)C(F)(F)F [1H-perfluorooctane]
Details | mass density [kg/m3] | vapor or sublimation pressure [kPa]
288.15 K | 1773.6 ± 1.6 | –
288.35 K | – | 1.18 ± 0.06
293.15 K | 1761.8 ± 1.6 | –
293.26 K | – | 1.6 ± 0.06
298.15 K | 1749.9 ± 1.6 | –
298.26 K | – | 2.18 ± 0.07
303.15 K | 1737.9 ± 1.6 | –
303.19 K | – | 2.84 ± 0.07
308.15 K | 1725.8 ± 1.6 | 3.72 ± 0.08
313.13 K | – | 4.87 ± 0.1
313.15 K | 1713.6 ± 1.6 | –
318.06 K | – | 6.22 ± 0.11
323.01 K | – | 8.07 ± 0.13
328 K | – | 10.25 ± 0.15
332.89 K | – | 12.83 ± 0.17

FC(F)(F)C(F)(F)C(F)(F)C(F)(F)C(F)(F)C(F)(F)C(F)(F)C(F)(F)C(F)(F)F [eicosafluorononane]
Details | mass density [kg/m3] | vapor or sublimation pressure [kPa]
288.15 K | 1812.2 ± 1.7 | –
288.18 K | – | 0.68 ± 0.04
293.15 K | 1800.1 ± 1.7 | –
293.18 K | – | 0.94 ± 0.05
298.11 K | – | 1.29 ± 0.07
298.15 K | 1787.9 ± 1.7 | –
303.1 K | – | 1.71 ± 0.06
303.15 K | 1775.7 ± 1.7 | –
308.19 K | – | 2.32 ± 0.07
313.15 K | 1750.9 ± 1.6 | –
313.17 K | – | 3.06 ± 0.08
318.22 K | – | 3.99 ± 0.09
323.15 K | – | 5.14 ± 0.1
328.15 K | – | 6.59 ± 0.11
333.15 K | – | 8.42 ± 0.13

FC(F)(F)C(F)(F)C(F)(F)C(F)(F)C(F)(F)C(F)(F)C(F)(F)C(F)(F)Br [1-bromoperfluorooctane]
Details | mass density [kg/m3] | vapor or sublimation pressure [kPa]
288.15 K | 1938.6 ± 1.9 | –
288.22 K | – | 0.38 ± 0.02
293.15 K | 1926.7 ± 1.9 | –
293.2 K | – | 0.54 ± 0.03
298.08 K | – | 0.69 ± 0.04
298.15 K | 1914.8 ± 1.9 | –
303.15 K | 1902.8 ± 1.9 | –
303.26 K | – | 0.98 ± 0.05
308.15 K | 1890.8 ± 1.8 | –
308.22 K | – | 1.3 ± 0.06
313.15 K | 1878.6 ± 1.8 | –
313.18 K | – | 1.67 ± 0.06
318.09 K | – | 2.24 ± 0.07
322.92 K | – | 2.89 ± 0.08
327.88 K | – | 3.69 ± 0.08
332.78 K | – | 4.7 ± 0.09

Fc1c(F)c(F)c(F)c(F)c1F [hexafluorobenzene]
Details | mass density [kg/m3] | vapor or sublimation pressure [kPa]
288.15 K | 1628.9 ± 1.4 | –
288.23 K | – | 6.9 ± 0.12
293.15 K | 1617.5 ± 1.4 | –
293.51 K | – | 9 ± 0.14
297.98 K | – | 11.16 ± 0.16
298.15 K | 1606.2 ± 1.4 | –
302.96 K | – | 14.2 ± 0.19
303.15 K | 1594.8 ± 1.4 | –
307.96 K | – | 17.93 ± 0.23
308.15 K | 1583.3 ± 1.3 | –
312.96 K | – | 22.25 ± 0.27
313.15 K | 1571.8 ± 1.3 | –
317.96 K | – | 27.56 ± 0.33
322.96 K | – | 33.85 ± 0.39
327.95 K | – | 41.16 ± 0.46
333.01 K | – | 49.95 ± 0.54

Fc1c(F)c(F)c(C(F)(F)F)c(F)c1F [octafluorotoluene]
Details | mass density [kg/m3] | vapor or sublimation pressure [kPa]
288.15 K | 1682.8 ± 1.5 | –
288.23 K | – | 2.18 ± 0.07
293.15 K | 1672.2 ± 1.5 | –
293.2 K | – | 2.95 ± 0.08
298.15 K | 1661.6 ± 1.5 | –
298.28 K | – | 3.87 ± 0.09
303.15 K | 1650.9 ± 1.4 | –
303.18 K | – | 5.09 ± 0.1
308.15 K | 1640.2 ± 1.4 | 6.54 ± 0.11
313.15 K | 1629.4 ± 1.4 | 8.43 ± 0.13
318.15 K | – | 10.69 ± 0.15
323.15 K | – | 13.38 ± 0.18
328.45 K | – | 16.86 ± 0.22
333.93 K | – | 21.31 ± 0.26

FC(F)(F)C(F)(F)C(F)(F)C(F)(F)C(F)(F)C(F)(F)F [perfluorohexane]
Details | mass density [kg/m3] | vapor or sublimation pressure [kPa]
288.15 K | 1705.6 ± 1.5 | –
288.31 K | – | 18.78 ± 2
293.15 K | 1691 ± 1.5 | –
293.22 K | – | 23.58 ± 2
298.09 K | – | 29.28 ± 2
298.15 K | 1676.1 ± 1.5 | –
302.98 K | – | 36.19 ± 2
303.15 K | 1661.1 ± 1.5 | –
307.97 K | – | 44.38 ± 2
313.15 K | 1630.2 ± 1.4 | –
313.17 K | – | 54.56 ± 2.1
318.15 K | – | 65.86 ± 2.1
323.13 K | – | 78.91 ± 2.1
328.11 K | – | 94.08 ± 2.2
333.1 K | – | 111.39 ± 2.2
